Test results as given in patent publication US20260053834A1, “COVALENT MODIFIERS OF AKT1 AND USES THEREOF” (Terremoto Biosciences, Inc., priority 2023, published 2026).
pIC50: −log10 of the molar value.

What was measured:
[1] = test system: LAPC4 prostate cancer cells, which express the AKT1 E17K allele; test: Antiproliferative effects in LAPC4 cells (CellTiter Glo, 72 h); type: cell-based; settings: Homo sapiens, LAPC4, 72 h, read-out: LAPC4 proliferation IC50: GeoMean IC50
Method in brief: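 IC50 values come from Hill-equation fitting of luminescence (cellular ATP) after 72 h compound exposure. Treated wells held 1,000 cells each, with compound delivered as DMSO dilutions. Culture medium was IMDM plus 12% FBS.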

[2] = biological target: T1, AKT1 E17K (Homo sapiens, UniProt P31749, E17K); test: Live cell target engagement by NanoBRET competitive probe displacement, AKT1 E17K; type: binding; settings: transfected HEK293 cells, 2 h at 37° C., read-out: AKT1 E17K IC50: GeoMean IC50
T1 construct: expressed in transfected cells; host or cells: HEK293

[3] = biological target: T2, AKT1 WT (Homo sapiens, UniProt P31749); test: Live cell target engagement by NanoBRET competitive probe displacement, AKT1 WT; type: binding; settings: transfected HEK293 cells, 2 h at 37° C., read-out: AKT1 WT IC50: GeoMean IC50
T2 construct: expressed in transfected cells; host or cells: HEK293

[4] = biological target: T3, AKT2 (Homo sapiens, UniProt P31751); test: Live cell target engagement by NanoBRET competitive probe displacement, AKT2; type: binding; settings: transfected HEK293 cells, 2 h at 37° C., read-out: AKT2 IC50: GeoMean IC50
T3 construct: expressed in transfected cells; host or cells: HEK293
T3 sequence (P31751 whole entry): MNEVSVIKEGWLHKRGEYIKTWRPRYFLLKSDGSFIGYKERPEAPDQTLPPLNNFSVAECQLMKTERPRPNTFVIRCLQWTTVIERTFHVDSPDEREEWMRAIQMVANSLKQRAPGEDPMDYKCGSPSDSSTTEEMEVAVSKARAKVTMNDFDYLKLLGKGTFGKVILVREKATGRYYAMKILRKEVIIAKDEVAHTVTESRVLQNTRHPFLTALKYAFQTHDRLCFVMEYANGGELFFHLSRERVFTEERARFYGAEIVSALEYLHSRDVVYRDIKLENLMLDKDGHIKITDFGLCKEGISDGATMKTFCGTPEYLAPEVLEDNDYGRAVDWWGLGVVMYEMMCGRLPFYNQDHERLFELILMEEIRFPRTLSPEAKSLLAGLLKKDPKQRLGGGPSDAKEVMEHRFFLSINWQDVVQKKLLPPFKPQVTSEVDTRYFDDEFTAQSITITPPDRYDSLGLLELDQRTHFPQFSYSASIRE

T1 sequence (P31749 whole entry E17K): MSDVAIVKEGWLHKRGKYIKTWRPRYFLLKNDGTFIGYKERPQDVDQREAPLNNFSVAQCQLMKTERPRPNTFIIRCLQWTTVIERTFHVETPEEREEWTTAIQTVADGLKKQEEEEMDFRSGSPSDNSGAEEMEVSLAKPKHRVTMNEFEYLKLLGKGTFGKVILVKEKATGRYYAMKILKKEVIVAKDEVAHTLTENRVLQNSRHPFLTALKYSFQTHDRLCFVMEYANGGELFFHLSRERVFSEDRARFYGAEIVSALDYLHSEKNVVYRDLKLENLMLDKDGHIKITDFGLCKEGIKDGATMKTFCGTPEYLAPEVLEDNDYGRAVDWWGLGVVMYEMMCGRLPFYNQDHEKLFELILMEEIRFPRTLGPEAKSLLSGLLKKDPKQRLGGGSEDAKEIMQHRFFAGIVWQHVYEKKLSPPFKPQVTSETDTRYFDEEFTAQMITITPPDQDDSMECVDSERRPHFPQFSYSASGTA
T2 sequence (P31749 whole entry): as the sequence (P31749 whole entry E17K) above, with K17E counted along it

| SMILES | pIC50 [1] | pIC50 [2] | pIC50 [3] | pIC50 [4] |
| --- | --- | --- | --- | --- |
| CC(=O)Nc1ccc(C(=O)N[C@H]2CCc3cc(-n4c(-c5cccnc5N)nc5ccc(-c6ccccc6)nc54)ccc32)cc1C=O [Example 14, N-[(1S)-5-[2-(2-aminopyridin-3-yl)-5-phenylimidazo[4,5-b]pyridin-3-yl]-2,3-dihydro-1H-inden-1-yl]-4-acetamido-3-formylbenzamide] | > 8.00 | > 8.00 | > 8.00 | 7.00 to 8.00 |
| Nc1ncccc1-c1nc2c(C3CC3)cc(-n3cccn3)nc2n1-c1ccc2c(c1)CC[C@@H]2NC(=O)c1ccc(O)c(C=O)c1 [Example 230, N-[(1S)-5-[2-(2-aminopyridin-3-yl)-7-cyclopropyl-5-(pyrazol-1-yl)imidazo[4,5-b]pyridin-3-yl]-2,3-dihydro-1H-inden-1-yl]-3-formyl-4-hydroxybenzamide] | 5.70 to 7.00 | 7.00 to 8.00 | 7.00 to 8.00 | 5.70 to 7.00 |
| Nc1ncccc1-c1nc2ccc(-n3cccn3)nc2n1-c1ccc2c(c1)CC[C@@H]2NC(=O)c1cc(C=O)c(O)c2scnc12 [Example 242, (S)—N-(5-(2-(2-aminopyridin-3-yl)-5-(1H-pyrazol-1-yl)-3H-imidazo[4,5-b]pyridin-3-yl)-2,3-dihydro-1H-inden-1-yl)-6-formyl-7-hydroxybenzo[d]thiazole-4-carboxamide] | 5.70 to 7.00 | 7.00 to 8.00 | 5.70 to 7.00 | ≤ 5.70 |
| Cc1ccc(-c2nc3ccc(-n4cccn4)nc3n2-c2ccc3c(c2)CC[C@@H]3NC(=O)c2ccc(O)c(C=O)c2)c(N)n1 [Example 166, (S)—N-(5-(2-(2-amino-6-methylpyridin-3-yl)-5-(1H-pyrazol-1-yl)-3H-imidazo[4,5-b]pyridin-3-yl)-2,3-dihydro-1H-inden-1-yl)-3-formyl-4-hydroxybenzamide] | ≤ 5.70 | ≤ 5.70 | ≤ 5.70 | ≤ 5.70 |
| Nc1ncccc1-c1nc2ccc(-c3ccccc3)nc2n1-c1ccc2c(c1)CC[C@@H]2NC(=O)c1cnn2ccc(O)c(C=O)c12 [Example 54, N-[(1S)-5-[2-(2-aminopyridin-3-yl)-5-phenylimidazo[4,5-b]pyridin-3-yl]-2,3-dihydro-1H-inden-1-yl]-4-formyl-5-hydroxypyrazolo[1,5-a]pyridine-3-carboxamide] | ≤ 5.70 | 5.70 to 7.00 | 7.00 to 8.00 | 5.70 to 7.00 |
| Nc1ncccc1-c1nc2ccc(-n3nccn3)nc2n1-c1ccc2c(c1)CC[C@@H]2NC(=O)c1cc(C=O)c(O)c(F)c1F [Example 118, (S)—N-(5-(2-(2-aminopyridin-3-yl)-5-(2H-1,2,3-triazol-2-yl)-3H-imidazo[4,5-b]pyridin-3-yl)-2,3-dihydro-1H-inden-1-yl)-2,3-difluoro-5-formyl-4-hydroxybenzamide] | 7.00 to 8.00 | 7.00 to 8.00 | 7.00 to 8.00 | 5.70 to 7.00 |
| Nc1ncccc1-c1nc2ccc(-n3cccn3)nc2n1-c1ccc2c(c1)CC[C@@H]2NC(=O)c1cc(C=O)c(O)c(OC(F)F)c1 [Example 168, (S)—N-(5-(2-(2-aminopyridin-3-yl)-5-(1H-pyrazol-1-yl)-3H-imidazo[4,5-b]pyridin-3-yl)-2,3-dihydro-1H-inden-1-yl)-3-(difluoromethoxy)-5-formyl-4-hydroxybenzamide] | 5.70 to 7.00 | 7.00 to 8.00 | 7.00 to 8.00 | 5.70 to 7.00 |
| Nc1ncccc1-c1nc2ccc(-c3ccccc3)nc2n1-c1ccc2c(c1)CC[C@@H]2NC(=O)c1cc(C=O)c(O)c(F)c1F [Example 22, N-[(1S)-5-[2-(2-aminopyridin-3-yl)-5-phenylimidazo[4,5-b]pyridin-3-yl]-2,3-dihydro-1H-inden-1-yl]-2,3-difluoro-5-formyl-4-hydroxybenzamide] | 7.00 to 8.00 | 7.00 to 8.00 | 7.00 to 8.00 | 7.00 to 8.00 |
| Nc1ncccc1-c1nc2ccc(-n3ccc(-n4cccn4)n3)nc2n1-c1ccc2c(c1)CC[C@@H]2NC(=O)c1ccc(O)c(C=O)c1 [Example 117, (S)—N-(5-(5-(1′H-[1,3′-bipyrazol]-1′-yl)-2-(2-aminopyridin-3-yl)-3H-imidazo[4,5-b]pyridin-3-yl)-2,3-dihydro-1H-inden-1-yl)-3-formyl-4-hydroxybenzamide] | 7.00 to 8.00 | 7.00 to 8.00 | 7.00 to 8.00 | 5.70 to 7.00 |
| Nc1ncccc1-c1nc2ccc(-c3ccccc3)nc2n1-c1ccc2c(c1)CC[C@@H]2NC(=O)c1ccc(B(O)O)c(C=O)c1 [Example 161, (S)-(4-((5-(2-(2-aminopyridin-3-yl)-5-phenyl-3H-imidazo[4,5-b]pyridin-3-yl)-2,3-dihydro-1H-inden-1-yl)carbamoyl)-2-formylphenyl)boronic acid] | 5.70 to 7.00 | 7.00 to 8.00 | 7.00 to 8.00 | 5.70 to 7.00 |
| Nc1ncccc1-c1nc2ccc(-c3ccccc3)nc2n1-c1ccc2c(c1)CCC2C(=O)NCc1ccc(C=O)c(O)c1 (centres unmarked) [Example 10, 5-(2-(2-aminopyridin-3-yl)-5-phenyl-3H-imidazo[4,5-b]pyridin-3-yl)-N-(4-formyl-3-hydroxybenzyl)-2,3-dihydro-1H-indene-1-carboxamide] | 7.00 to 8.00 | > 8.00 | 7.00 to 8.00 | 5.70 to 7.00 |
| Nc1ncccc1-c1nc2ccc(-c3ccccc3)nc2n1-c1ccc2c(c1)CCC2C(=O)Nc1ccc(O)c(C=O)c1 (centres unmarked) [Example 27, 5-[2-(2-aminopyridin-3-yl)-5-phenylimidazo[4,5-b]pyridin-3-yl]-N-(3-formyl-4-hydroxyphenyl)-2,3-dihydro-1H-indene-1-carboxamide] | 5.70 to 7.00 | 7.00 to 8.00 | 5.70 to 7.00 | 5.70 to 7.00 |

Second part, the molecule after the results:

| pIC50 [1] | pIC50 [2] | pIC50 [3] | pIC50 [4] | SMILES |
| --- | --- | --- | --- | --- |
| 5.70 to 7.00 | 7.00 to 8.00 | 7.00 to 8.00 | 5.70 to 7.00 | Cc1cnc(-c2ccc3nc(-c4cccnc4N)n(-c4ccc5c(c4)CC[C@@H]5NC(=O)c4ccc(O)c(C=O)c4)c3n2)o1 [Example 174, N-[(1S)-5-[2-(2-aminopyridin-3-yl)-5-(5-methyl-1,3-oxazol-2-yl)imidazo[4,5-b]pyridin-3-yl]-2,3-dihydro-1H-inden-1-yl]-3-formyl-4-hydroxybenzamide] |
| 5.70 to 7.00 | 7.00 to 8.00 | 5.70 to 7.00 | 5.70 to 7.00 | Nc1ncccc1-c1nc2ccc(-c3ncc(C(F)F)s3)nc2n1-c1ccc2c(c1)CC[C@@H]2NC(=O)c1ccc(O)c(C=O)c1 [Example 146, (S)—N-(5-(2-(2-aminopyridin-3-yl)-5-(5-(difluoromethyl)thiazol-2-yl)-3H-imidazo[4,5-b]pyridin-3-yl)-2,3-dihydro-1H-inden-1-yl)-3-formyl-4-hydroxybenzamide] |
| 5.70 to 7.00 | 7.00 to 8.00 | 5.70 to 7.00 | ≤ 5.70 | Nc1ncccc1-c1nc2cccnc2n1-c1ccc2c(c1)CC[C@@H]2NC(=O)c1ccc(O)c(C=O)c1 [Example 15, N-[(1S)-5-[2-(2-aminopyridin-3-yl)imidazo[4,5-b]pyridin-3-yl]-2,3-dihydro-1H-inden-1-yl]-3-formyl-4-hydroxybenzamide] |
| 5.70 to 7.00 | 7.00 to 8.00 | 5.70 to 7.00 | ≤ 5.70 | CN1CCN(c2ccc3nc(-c4cccnc4N)n(-c4ccc5c(c4)CC[C@@H]5NC(=O)c4ccc(O)c(C=O)c4)c3n2)CC1 [Example 38, (S)—N-(5-(2-(2-aminopyridin-3-yl)-5-(4-methylpiperazin-1-yl)-3H-imidazo[4,5-b]pyridin-3-yl)-2,3-dihydro-1H-inden-1-yl)-3-formyl-4-hydroxybenzamide] |
| ≤ 5.70 | 5.70 to 7.00 | 5.70 to 7.00 | 5.70 to 7.00 | Nc1ncccc1-c1nc2ccc(-n3cc4c(n3)CNC4)nc2n1-c1ccc2c(c1)CC[C@@H]2NC(=O)c1ccc(O)c(C=O)c1 [Example 160, N-[(1S)-5-[2-(2-aminopyridin-3-yl)-5-{4H,5H,6H-pyrrolo[3,4-c]pyrazol-2-yl}imidazo[4,5-b]pyridin-3-yl]-2,3-dihydro-1H-inden-1-yl]-3-formyl-4-hydroxybenzamide] |
| 5.70 to 7.00 | 7.00 to 8.00 | 7.00 to 8.00 | 5.70 to 7.00 | COc1cc(-n2cccn2)nc2c1nc(-c1cccnc1N)n2-c1ccc2c(c1)CC[C@@H]2NC(=O)c1ccc(O)c(C=O)c1 [Example 200, N-[(1S)-5-[2-(2-aminopyridin-3-yl)-7-methoxy-5-(pyrazol-1-yl)imidazo[4,5-b]pyridin-3-yl]-2,3-dihydro-1H-inden-1-yl]-3-formyl-4-hydroxybenzamide] |
| 7.00 to 8.00 | > 8.00 | 7.00 to 8.00 | 5.70 to 7.00 | Nc1ncccc1-c1nc2ccc(-c3ccn(C(F)F)n3)nc2n1-c1ccc2c(c1)CC[C@@H]2NC(=O)c1ccc(O)c(C=O)c1 [Example 113, N-[(1S)-5-[2-(2-aminopyridin-3-yl)-5-[1-(difluoromethyl)pyrazol3-yl]imidazo [4,5-b]pyridin-3-yl]-2,3-dihydro-1H-inden-1-yl]-3-formyl-4-hydroxybenzamide] |
| 5.70 to 7.00 | 7.00 to 8.00 | 5.70 to 7.00 | 5.70 to 7.00 | Nc1ncccc1-c1nc2ccc(-n3cc(Cl)cn3)nc2n1-c1ccc2c(c1)CC[C@@H]2NC(=O)c1ccc(O)c(C=O)c1 [Example 78, N-[(1S)-5-[2-(2-aminopyridin-3-yl)-5-(4-chloropyrazol-1-yl)imidazo[4,5-b]pyridin-3-yl]-2,3-dihydro-1H-inden-1-yl]-3-formyl-4-hydroxybenzamide] |
